Measured values taken from patent US12157743B2, “Solid forms of Alpha-1062 gluconate” (priority 2021, dated 2024).
Entries after “also recorded” stand apart in the source; their conditions may differ.

Assays:
[1] = Dynamic vapor sorption (DVS) isotherm; format: physicochemical; conditions: for DVS hysteresis: 5 to 95 to 5% RH; for XRPD of post DVS sample (solid form): material recovered after DVS cycle ending at 5% RH
Source text: As used herein, DVS (Dynamic Vapor Sorption) is a gravimetric technique to measure the rate and amount of absorption of a solvent by a sample under controlled conditions. […]

[2] = Relative humidity stressing of solid samples, XRPD; format: physicochemical
Source text: (§1) To investigate the stability of the four pure crystalline forms of Alpha-1062 Gluconate, water activity (aw) slurries using a variety of mixed aqueous/organic solvent systems (Table 6) along with relative humidity stressing (Table 7) were used to define the regions of stability for the given hydrates of Alpha-1062 Gluconate.

[3] = Water activity (aw) slurries in mixed aqueous/organic solvent systems, XRPD; format: physicochemical; conditions: for Result (solid form after slurry): ambient; for Water activity at which the form is the most stable form: from water activity slurries and RH stressing, Form C: above 0.12 aw up to the value
Source text: as §1

[4] = Polymorph screen: ambient slurries of Form A in solvents, XRPD; format: physicochemical; conditions: 14 d
Method: A polymorph screening study was initiated to investigate the presence and identity of various solid materials that may be possible for Alpha-1062 Gluconate. This study used lot CA19-1144 as the starting material and utilized various solvent systems and conditions to isolate and study the materials produced during the studies (Table 5). The various materials were analyzed by XRPD and the various solid forms identified as shown (FIG. 6).

[5] = Heat / vacuum stressing analysed by XRPD; format: physicochemical
Method: Form B: Alpha-1062 Gluconate, Sample 8235-82-08 (Table 10). Form B is a tetrahydrate crystalline lattice. It appears that at least one of the four water sites in the crystal lattice is somewhat labile. […] The formula unit volume of 772 Å^3 calculated from the indexing results is larger than Form A by 84 Å^3. […] A broad endotherm with an onset of 66° C. (concurrent with weight loss in the TGA) is observed in the DSC consistent with desolvation. […] Upon desorption, 1.8% weight loss from 95-15% RH followed by 6.8% weight loss from 15-5% RH was observed. The DVS data was corrected for water content measured by KF at 57% RH (FIG. 18). A stable plateau of between 3.6 and 3.9 mol/mol of water for Form B is evident between 15 and 85% RH.
Form C: Alpha-1062 Gluconate, Sample 8235-87-02 (Table 11). Form C was determined to be a monohydrate crystal lattice occupied at only about 0.4 to 0.5 mol/mol of water. […] The XRPD pattern was successfully indexed by a single primitive monoclinic unit cell. The formula unit volume of 706 Å^3 calculated from the indexing results is larger than Form A by 18 Å^3. […] An endotherm with an onset of 119° C. is observed in the DSC. • Form C (sample 8235-92-04) was held at 11% RH for seven days and analyzed by XRPD and DSC for comparison (sample 8296-08-01). […] The DVS data was corrected for water content measured by KF at 11% RH (FIG. 25). […]

[6] = Storage and XRPD reanalysis; format: physicochemical; conditions: reanalyzed
Source text: Material G: Alpha-1062 Gluconate, Samples 8235-87-01 and 8235-100-02 (Table 15). Material G has been observed from evaporative experiments of both 1,4-dioxane and THF. […] Based on the spontaneous conversion, Material G is metastable with Form B at that condition. Material G was not observed during any of the water activity slurries or relative humidity work.
Amorphous: Alpha-1062 Gluconate, sample 8235-76-13 (Table 16) has been observed from slow evaporation from methanol (Table 5). […] No significant impurity increases were observed by ^1H NMR. • Thermal Analysis (FIG. 35). A cyclic DSC was conducted to determine the glass transition (Tg) temperature of the amorphous solid. The glass transition temperature was determined to be near 41° C. Decomposition was observed upon continued heating with no nucleation.

[7] = steady-state, human brain vs blood; cited from earlier work
[8] = IPA/H2O 97:03 v/v, 0.31 aw, 13 d
[9] = MEK/H2O 98:02 v/v, 0.42 aw, 13 d
[10] = water activity slurries and RH stressing

COc1ccc2c3c1O[C@H]1C[C@@H](OC(=O)c4ccccc4)C=C[C@@]31CCN(C)C2.O=C(O)C(O)C(O)C(O)C(O)CO [Form A, Alpha-1062 gluconate]
Hygroscopicity (DVS assessment) [1]: significant hygroscopicity above 75% RH
DVS hysteresis [1]: Hysteresis was observed
DVS hysteresis ([1]; listed as CA19-1144): hysteresis observed
DVS wt. gain ([1]; from 5 to 75% RH (sorption)): 0.57 % wt.
DVS wt. gain ([1]; from 5 to 75% RH (sorption), listed as CA19-1144): 0.57% wt. gain from 5 to 75% RH
DVS wt. gain ([1]; from 75 to 85% RH (sorption)): 2.97 % wt.
DVS wt. gain ([1]; from 75 to 85% RH (sorption), listed as CA19-1144): 2.96% wt. gain from 75 to 85% RH
DVS wt. loss ([1]; from 85 to 5% RH (desorption)): 2.98% wt. loss from 85 to 5% RH
DVS wt. gain ([1]; from 85 to 95% RH (sorption)): 8.7 % wt.
DVS wt. gain ([1]; from 85 to 95% RH (sorption), listed as CA19-1144): 8.67% wt. gain from 85 to 95% RH
DVS wt. loss ([1]; from 95 to 85% RH (desorption)): 1.73% wt. loss from 95 to 85% RH
XRPD of post DVS sample (solid form) [1]: Form A+minor peaks of Form B
XRPD of post DVS sample (solid form) ([1]; listed as CA19-1144): Form A + B (trace)
Water gain at stable desorption plateau ([1]; weight within stable plateau on desorption): more than 3 mol/mol
Result (solid form by XRPD) ([2]; 43% RH, 5 d): kinetically stable
Result (solid form by XRPD) ([2]; 75% RH, 1 d): D + minor A
Result (solid form by XRPD) ([2]; 75% RH, 2 d): D + minor B
Result (solid form after slurry) ([3]; MEK/H2O 98:02 v/v, 0.42 aw, 1 d): C + B
Result (solid form after slurry) ([3]; MEK/H2O 98:02 v/v, 0.42 aw, 2 d): C + B
Result (solid form after slurry) ([3]; MEK/H2O 99:01 v/v, 0.27 aw, 7 d): C + A
Water activity at which the form is the most stable form [3]: less than 0.12 aw
Result (solid form after slurry) ([4]; EtOH): C + A
Result (solid form after slurry) ([4]; acetone): C + D

COc1ccc2c3c1O[C@H]1C[C@@H](OC(=O)c4ccccc4)C=C[C@@]31CCN(C)C2.O=C(O)C(O)C(O)C(O)C(O)CO [Form B, Alpha-1062 gluconate]
Hygroscopicity (DVS assessment) [1]: limited hygroscopicity
DVS wt. loss ([1]; from 15-5% RH (desorption)): 6.8% wet loss from 15-5% RH % wt.
XRPD of post DVS sample (solid form) [1]: anhydrous Form A
Result (solid form by XRPD) ([2]; 0% RH, P2O5, 1 d): dehydrate to Form A
Result (solid form by XRPD) ([2]; 57% RH, 4 d): remained Form B
Result (solid form after slurry) [3, 8]: C + B
Result (solid form after slurry) [3, 9]: C + B
Water activity at which the form is the most stable form [3]: Above 0.5 aw
Water activity of solvent systems in which the form was observed ([3]; in equilibrium Form B/Form C between 0.31 and 0.52 aw): above 0.52 aw
Solid form by XRPD after heating ([5]; 40-75° C., 10 min (in DSC)): partial dehydration and conversion to a mixture of Forms D and C; also recorded: Form D + C + peak

COc1ccc2c3c1O[C@H]1C[C@@H](OC(=O)c4ccccc4)C=C[C@@]31CCN(C)C2.O=C(O)C(O)C(O)C(O)C(O)CO [Form C + B, Alpha-1062 gluconate]
Result (solid form by XRPD) ([2]; 0% RH, P2O5, 1 d): C+ A

COc1ccc2c3c1O[C@H]1C[C@@H](OC(=O)c4ccccc4)C=C[C@@]31CCN(C)C2.O=C(O)C(O)C(O)C(O)C(O)CO [Form C, Alpha-1062 gluconate]
Hygroscopicity (DVS assessment) [1]: significant hygroscopicity above 75% RH
DVS hysteresis [1]: hysteresis observed
Water retained after DVS ([1]; DVS corrected for KF water content at 11% RH): ~1.4 mol/mol
DVS wt. gain ([1]; from 5-65% RH (sorption)): 0% wt. gain from 5-65% RH
DVS wt. gain ([1]; from 5 to 75% RH (sorption)): no significant weight gain
DVS wt. retained ([1]; from 75-5% RH (desorption)): ~3% wt. retained from 75-5% RH
XRPD of post DVS sample (solid form) [1]: mixture of Forms C and B; also recorded: Form C + B
Result (solid form by XRPD) ([2]; 0% RH, P2O5, 1 d): C + minor A
Result (solid form by XRPD) ([2]; 11% RH, 4 d): remained Form C
Result (solid form by XRPD) ([2]; 11% RH, 7 d): remained Form C
Result (solid form after slurry) [3, 8]: C + B
Result (solid form after slurry) [3, 9]: C + B
Water activity at which the form is the most stable form [3]: up to 0.5 aw
Solid form by XRPD after vacuum storage ([5]; vacuum, 45° C., 3 hrs): remained Form C with the presence of a minor amount of Form A

COc1ccc2c3c1O[C@H]1C[C@@H](OC(=O)c4ccccc4)C=C[C@@]31CCN(C)C2.O=C(O)C(O)C(O)C(O)C(O)CO [Form D + A, Alpha-1062 gluconate]
Result (solid form by XRPD) ([2]; 75% RH, 4 d): B + D

COc1ccc2c3c1O[C@H]1C[C@@H](OC(=O)c4ccccc4)C=C[C@@]31CCN(C)C2.O=C(O)C(O)C(O)C(O)C(O)CO [Form D + B, Alpha-1062 gluconate]
Result (solid form by XRPD) ([2]; 75% RH, 1 d): D + B

COc1ccc2c3c1O[C@H]1C[C@@H](OC(=O)c4ccccc4)C=C[C@@]31CCN(C)C2.O=C(O)C(O)C(O)C(O)C(O)CO [Form D, Alpha-1062 gluconate]
Result (solid form by XRPD) ([2]; 75% RH, 1 d): Form D + minor B
Relative humidity at which the form converts to Form C [2, 10]: < 52 % RH
Relative humidity of extended exposure at which the form converts to Form B [2, 10]: ≥ 52 % RH
Result (solid form after slurry) [3, 8]: C + B
Result (solid form after slurry) [3, 9]: C + B
Water activity at which the form is the most stable form [3]: does not appear stable at any of the conditions evaluated

COc1ccc2c3c1O[C@H]1C[C@@H](OC(=O)c4ccccc4)C=C[C@@]31CCN(C)C2.O=C(O)C(O)C(O)C(O)C(O)CO [Forms B + D, Alpha-1062 gluconate]
Result (solid form after slurry) ([3]; MEK/H2O 97:03 v/v, 0.52 aw, 7 d): B + C

COc1ccc2c3c1O[C@H]1C[C@@H](OC(=O)c4ccccc4)C=C[C@@]31CCN(C)C2.O=C(O)C(O)C(O)C(O)C(O)CO [Material G, Alpha-1062 gluconate]
Solid form by XRPD on reanalysis ([6]; 5 weeks): partially converted to Form B; also recorded: Material G + Form B

COc1ccc2c3c1O[C@H]1C[C@@H](OC(=O)c4ccccc4)C=C[C@@]31CCN(C)C2.O=C(O)C(O)C(O)C(O)C(O)CO [amorphous Alpha-1062 Gluconate, Alpha-1062 gluconate]
Solid form by XRPD on reanalysis ([6]; 5 weeks): amorphous
Solid form by XRPD on reanalysis ([6]; 5 weeks, listed as Amorphous): remain amorphous
Solid form by XRPD on reanalysis ([6]; 13 days): Form B + C
Solid form by XRPD on reanalysis ([6]; 13 days, listed as Amorphous): spontaneously crystallized to a mixture of Forms B and C

COc1ccc2c3c1O[C@H]1C[C@@H](O)C=C[C@@]31CCN(C)C2 [galantamine]
brain-to-blood concentration ratio (BBCR) [7]: < 2
